Consider two substances from paper PMC10082830, “A tailored tetravalent peptide displays dual functions to inhibit amyloid β production and aggregation” (Communications Biology, 2023).

Test [1] deals with 7WD10 Chinse Hamster Ovary (CHO) cells stably expressing human APP. Description: Aβ production in 7WD10 cells, western blot of culture medium and cell lysates. It is filed as cell-based, Chinese Hamster. The following applies: 48 h, tetravalent peptides 50 µM, LME-mono 100 and 200 µM, n = 3. The method, then:
7WD10 Chinse Hamster Ovary (CHO) cells were treated with each tetravalent peptide (50 µM) for 48 h; cell lysates (for intracellular C99 and Aβ) and culture medium (for extracellular Aβ) from peptide-treated and vehicle control-treated cells were analyzed by western blot. Data are graphed as the percentage of the control value, showing the mean ± SE; n = 3. Significance vs. vehicle was calculated by analysis of variance (ANOVA), followed by one-sided Dunnett’s test; *P < 0.05, **P < 0.01. c Effect of increasing concentrations of LME-tet on Aβ production (left panel). 7WD10 cells were treated with vehicle control or LME-tet at the indicated concentrations for 48 h, and the culture medium was analyzed by western blot. Data are graphed as the percentage of the control value, showing the mean ± SE; n = 3. Significance vs. vehicle was calculated by ANOVA, followed by one-sided Dunnett’s test; *P < 0.05, **P < 0.01. Effect of LME-mono on Aβ production (right panels). 7WD10 cells were treated with vehicle control or LME-mono at the indicated concentrations for 48 h; cell lysates (for intracellular C99 and Aβ) and culture medium (for extracellular Aβ) were analyzed by western blot. […] Significance vs. vehicle was calculated by ANOVA, followed by one-sided Dunnett’s test; *P < 0.05. d Binding of LME-tet and LME-mono to Aβ1-28, Aβ40 and Aβ42 was measured by enzyme-linked immunosorbent assay (ELISA). […]
(In general: A western blot detects proteins with antibodies after separation by electrophoresis.)

Test [2] deals with T1, Aβ42 (Homo sapiens, UniProt P05067).
T1 construct: purchased Peptide Institute
T1 sequence (P05067 672-713 limits assumed): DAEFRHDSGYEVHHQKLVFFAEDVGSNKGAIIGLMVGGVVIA
Description: Circular dichroism spectroscopy of Aβ42 conformational change. The following applies: Aβ42 20 µM, peptide 2 µM, 50 mM sodium phosphate buffer pH 7.4, 37 °C, far-UV CD, molar ellipticity at 217 nm. The method, then: Fig. 5 LME-tet inhibits the conformational change and subsequent fibrillation of Aβ42. a Binding of LME-tet to extracellular Aβ. Culture medium from 7WD10 cells recovered after 48 h of growth was treated with biotinylated LME-tet (50 µM) or LME-mono (200 µM). Medium was then incubated with streptavidin beads, and coprecipitating Aβ40 and Aβ42 were analyzed by western blot using anti-Aβ or anti-Aβ42-specific antibody. b Time-dependent conformational change in Aβ42 (20 µM) in the presence of LME-tet (2 µM, lower left panel) or LME-mono (2 µM, upper right panel). Far-UV circular dichroism (CD) spectra (wavelength 190–250 nm) were measured at the indicated time points. […] Data represent the mean ± SE; n = 3–4. c Fibrillation profiles of Aβ42 in the presence of LME-tet (2 µM) or LME-mono (2 µM), measured by Thioflavin T-binding assay. […] Data represent the mean ± SE; n = 3. d Fibrillation profiles of Aβ42 in the presence of LME-tet (2 µM) or LME-mono (2 µM), analyzed by electron microscopy; representative images at ×10 K, ×50 K, and ×200 K magnification (left, right, and center, respectively) are shown. Scale bars indicate 2 µm, 400 nm, and 100 nm, respectively. e Effects of LME-tet (2 µM) on growth of Aβ42 fibril in the presence of 2% (v/v) Aβ42 fibril-seed, measured by the Thioflavin T-binding assay. […]
On the technique in general: Circular dichroism is the unequal absorption of left and right circularly polarised light.

In a further test the test system is 7WD10 cells. The experiment in a line: Lysosomal protease inhibitor treatment of 7WD10 cells, western blot. The following applies: LME-tet (25 µM) or LME-mono (100 µM), lysosomal PI cocktail (E-64, leupeptin), 48 h. It is filed as cell-based, Chinese Hamster.
Another test deals with T2, Aβ40 (Homo sapiens, UniProt P05067).
T2 construct: purchased Peptide Institute
T2 sequence (P05067 672-711 limits assumed): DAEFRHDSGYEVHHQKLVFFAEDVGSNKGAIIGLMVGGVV
The experiment in a line: ELISA binding between Aβ and LME peptides. The following applies: LME-mono (33 µM) applied on plate, n = 4. The method, then:
(§1) The indicated amounts of LME-tet (8.3 µM) or LME-mono (33 µM) were applied onto each well of a regular 96-well ELISA plate (Thermo Fisher Scientific) and incubated overnight for 24 h. After blocking, the plate was incubated with various concentrations of Aβ1–28, Aβ40, or Aβ42 (Peptide Institute) for 2 h at room temperature. Bound Aβ was detected using mouse monoclonal anti-human Aβ antibody 82E1 (Immuno-Biological Laboratories Co., Ltd.) and HRP-conjugated horse anti-mouse IgG antibody (Cell Signaling Technology).
Background: In an ELISA, binding on a coated surface is turned into a signal by an enzyme label.

A further test concerns Aβ1–28. The experiment in a line: ELISA binding between Aβ and LME peptides. As to conditions: LME-tet (8.3 µM) or LME-mono (33 µM) applied on plate, Aβ 2 h at room temperature, n = 3. How it is done:
as §1

Test [3] has as its target T1, Aβ42. The experiment in a line: ELISA binding between Aβ and LME peptides. The following applies: LME-mono (33 µM) applied on plate, n = 3. How it is done:
as §1

The target in test [4] is T1, Aβ42. The following applies: equivalent molar concentration, after 8 h of incubation, Thioflavin T-binding assay; cited from earlier work.

Ends that are not written are not given here.

For the substance “PKLRMKE [LME-mono, monomeric peptide with the same motif, Pro-Lys-Leu-Arg-Met-Lys-Glu]”, in test [1], the “inhibitory effect on production of Aβ” value was “has no effect”. At Aβ42 [2], the “conformational change of Aβ42 (β-sheet formation)” value is listed as “no effect was observed”. In the test with 7WD10 cells, the “PI-dependent increase of intracellular APP, C99, Aβ, p62 and LC3-II” value was “does not affect”. On Aβ40, the “binding to Aβ40” value is given as “unable to bind”. For the same substance, the “binding to Aβ1–28” value in the test on Aβ1–28 is on record as “unable to bind”. For the same substance, the “binding to Aβ42” value on Aβ42 [3] was “unable to bind”.

Regarding Ac-KL-NVF-NFA-NH2, at Aβ42 [4], the “inhibition of fibrillation of Aβ42” value was 40%.
